One test has as its system Ba/F3 (N-Ras G12D). Nature of the test: Proliferation inhibitory activity, mt-NRAS (G12D) Ba/F3 cell line. Particulars: Mus musculus, BaF3. Format: cell-based. How it is done:
(§1) The inhibitory activities of the compounds of the present disclosure against the proliferation of the mt-NRAS (G12D) Ba/F3 and OCI-AML3 (mt-NRAS) cell lines were measured, and the […] values thereof were calculated.

The target of another test is ACK1 (Homo sapiens, UniProt Q07912). Kind of test: Inhibitory activity against ACK1 kinase. It counts as biochemical. How it is done: (§2) The inhibitory activities of the compounds of the present disclosure against two kinases, GCK and ACK1, were measured, and the IC50 values thereof were calculated.
In another test the test system is OCI-AML3 (N-Ras Q61L). Nature of the test: Proliferation inhibitory activity, OCI-AML3 cell line. Format: cell-based. Conditions: Homo sapiens, OCI-AML-3. The procedure:
as §1
Referring to the results in Table 2, it can be seen that the compound of the present disclosure has inhibitory activity against the proliferation of the human acute myeloid leukemia cell line (OCI-AML3) having the NRAS mutant gene, and the effect thereof is remarkable. Therefore, it can be seen that the compound of the present disclosure is particularly effective as a therapeutic agent for acute myeloid leukemia (AML).

The target of another test is T1, GCK (Homo sapiens, UniProt Q12851).
T1 sequence (Q12851 1-820): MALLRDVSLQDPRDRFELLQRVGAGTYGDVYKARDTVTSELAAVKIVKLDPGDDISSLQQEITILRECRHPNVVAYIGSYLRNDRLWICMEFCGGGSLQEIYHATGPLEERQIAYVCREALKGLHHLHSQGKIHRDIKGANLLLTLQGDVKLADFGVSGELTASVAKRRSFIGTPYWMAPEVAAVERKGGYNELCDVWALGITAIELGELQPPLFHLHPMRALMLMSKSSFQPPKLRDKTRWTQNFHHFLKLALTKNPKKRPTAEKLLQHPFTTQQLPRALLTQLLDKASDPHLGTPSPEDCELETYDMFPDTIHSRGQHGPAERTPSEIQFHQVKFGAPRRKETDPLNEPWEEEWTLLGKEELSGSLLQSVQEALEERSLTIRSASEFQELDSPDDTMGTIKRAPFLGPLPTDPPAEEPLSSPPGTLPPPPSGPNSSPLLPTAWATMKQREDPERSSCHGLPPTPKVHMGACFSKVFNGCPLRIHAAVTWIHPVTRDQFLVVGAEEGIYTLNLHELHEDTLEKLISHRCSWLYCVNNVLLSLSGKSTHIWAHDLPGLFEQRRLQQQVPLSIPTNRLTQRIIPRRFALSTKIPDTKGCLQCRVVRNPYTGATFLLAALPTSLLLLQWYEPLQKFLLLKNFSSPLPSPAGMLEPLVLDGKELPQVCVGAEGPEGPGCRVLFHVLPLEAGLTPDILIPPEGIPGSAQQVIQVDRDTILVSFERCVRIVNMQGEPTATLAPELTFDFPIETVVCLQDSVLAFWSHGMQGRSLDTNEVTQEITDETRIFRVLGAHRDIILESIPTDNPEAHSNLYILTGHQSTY
Kind of test: Inhibitory activity against GCK kinase. It counts as biochemical. The procedure: as §2

Chain of ACK1 (Q07912 whole entry): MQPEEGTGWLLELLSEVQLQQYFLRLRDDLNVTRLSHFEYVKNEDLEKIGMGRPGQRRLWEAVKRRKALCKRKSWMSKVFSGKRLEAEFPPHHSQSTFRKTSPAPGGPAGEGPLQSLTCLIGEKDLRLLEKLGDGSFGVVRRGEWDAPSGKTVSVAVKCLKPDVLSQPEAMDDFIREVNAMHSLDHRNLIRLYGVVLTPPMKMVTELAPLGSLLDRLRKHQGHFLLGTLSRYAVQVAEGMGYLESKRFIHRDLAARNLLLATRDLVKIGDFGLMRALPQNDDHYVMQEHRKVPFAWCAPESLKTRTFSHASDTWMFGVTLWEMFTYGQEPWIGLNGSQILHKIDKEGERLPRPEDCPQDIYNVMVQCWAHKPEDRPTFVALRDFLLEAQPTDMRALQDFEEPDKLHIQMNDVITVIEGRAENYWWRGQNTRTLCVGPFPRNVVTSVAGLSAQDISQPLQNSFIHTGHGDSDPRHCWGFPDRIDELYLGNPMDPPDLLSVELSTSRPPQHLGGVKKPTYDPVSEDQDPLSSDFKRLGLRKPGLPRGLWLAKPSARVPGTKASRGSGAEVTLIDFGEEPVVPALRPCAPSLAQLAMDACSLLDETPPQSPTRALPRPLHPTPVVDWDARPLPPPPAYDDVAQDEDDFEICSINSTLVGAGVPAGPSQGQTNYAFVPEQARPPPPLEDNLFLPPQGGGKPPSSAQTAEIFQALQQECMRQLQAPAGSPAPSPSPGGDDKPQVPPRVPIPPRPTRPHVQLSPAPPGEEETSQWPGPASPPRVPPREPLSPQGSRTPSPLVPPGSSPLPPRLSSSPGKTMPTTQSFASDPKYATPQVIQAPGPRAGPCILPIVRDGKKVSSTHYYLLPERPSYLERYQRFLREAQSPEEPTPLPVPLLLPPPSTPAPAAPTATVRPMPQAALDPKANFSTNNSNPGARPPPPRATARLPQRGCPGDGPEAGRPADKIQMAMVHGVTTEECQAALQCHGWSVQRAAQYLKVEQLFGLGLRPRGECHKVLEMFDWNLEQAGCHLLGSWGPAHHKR

On to `COc1ccccc1-c1cnc(-c2ccc(C)c(N3Cc4cnc(Nc5cnn(C)c5)nc4N(C)C3=O)c2)[nH]1` [Compound No. 1, 3-(5-(5-(2-methoxyphenyl)-1H-imidazol-2-yl)-2-methylphenyl)-1-methyl-7-((1-methyl-1H-pyrazol-4-yl)amino)-3,4-dihydropyrimido[4,5-d]pyrimidin-2(1H)-one], for which the GI50 in the test on Ba/F3 (N-Ras G12D) and in the test on OCI-AML3 (N-Ras Q61L) was < 0.5 µM each time. Besides, the figures for the 50% inhibitory concentration (IC50) against ACK1 and against GCK were < 100 nM and 100 to 1000 nM, respectively.

In the case of `COc1ccccc1-c1cnc(-c2ccc(C)c(N3Cc4cnc(Nc5ccc(C)nc5C)nc4N(C)C3=O)c2)[nH]1` [Compound No. 2, 7-((2,6-dimethylpyridin-3-yl)amino)-3-(5-(5-(2-methoxyphenyl)-1H-imidazol-2-yl)-2-methylphenyl)-1-methyl-3,4-dihydropyrimido[4,5-d]pyrimidin-2(1H)-one], the GI50 with Ba/F3 (N-Ras G12D) and with OCI-AML3 (N-Ras Q61L) was 0.5 to 3 µM in each case.

As to `COc1ccccc1-c1cnc(-c2ccc(C)c(N3Cc4cnc(Nc5ccc(C)nc5)nc4N(C)C3=O)c2)[nH]1` [Compound No. 3, 3-(5-(5-(2-methoxyphenyl)-1H-imidazol-2-yl)-2-methylphenyl)-1-methyl-7-((6-methylpyridin-3-yl)amino)-3,4-dihydropyrimido[4,5-d]pyrimidin-2(1H)-one], the GI50 with Ba/F3 (N-Ras G12D) and in the test on OCI-AML3 (N-Ras Q61L) was < 0.5 µM each time. Besides, the IC50 against ACK1 was < 100 nM; against GCK, 100 to 1000 nM.

As for `CCN1CCC(n2cc(Nc3ncc4c(n3)N(C)C(=O)N(c3cc(-c5ncc(-c6ccccc6OC)[nH]5)ccc3C)C4)cn2)CC1` [Compound No. 4, 7-((1-(1-ethylpiperidin-4-yl)-1H-pyrazol-4-yl)amino)-3-(5-(5-(2-methoxyphenyl)-1H-imidazol-2-yl)-2-methylphenyl)-1-methyl-3,4-dihydropyrimido[4,5-d]pyrimidin-2(1H)-one], the GI50 in the test on Ba/F3 (N-Ras G12D) and in the test with OCI-AML3 (N-Ras Q61L) was < 0.5 µM throughout. The IC50 against ACK1 was < 100 nM; on GCK it was 100 to 1000 nM.

On to `CCN1CCC(c2ccc(Nc3ncc4c(n3)N(C)C(=O)N(c3cc(-c5ncc(-c6ccccc6OC)[nH]5)ccc3C)C4)cn2)CC1` [Compound No. 5, 7-((6-(1-ethylpiperidin-4-yl)pyridin-3-yl)amino)-3-(5-(5-(2-methoxyphenyl)-1H-imidazole-2-yl)-2-methylphenyl)-1-methyl-3,4-dihydropyrimido[4,5-d]pyrimidin-2(1H)-one], for which the GI50 with Ba/F3 (N-Ras G12D) and in the test with OCI-AML3 (N-Ras Q61L) was < 0.5 µM each time. Besides, the IC50 at ACK1 was < 100 nM; on GCK, 100 to 1000 nM.

Regarding `COc1ccccc1-c1cnc(-c2ccc(C)c(N3Cc4cnc(Nc5ccc(N6CCN(C(C)=O)CC6)nc5)nc4N(C)C3=O)c2)[nH]1` [Compound No. 6, 7-((6-(4-acetylpiperazin-1-yl)pyridin-3-yl)amino)-3-(5-(5-(2-methoxyphenyl)-1H-imidazol-2-yl)-2-methylphenyl)-1-methyl-3,4-dihydropyrimido[4,5-d]pyrimidin-2(1H)-one], the GI50 in the test on Ba/F3 (N-Ras G12D) and with OCI-AML3 (N-Ras Q61L) was < 0.5 µM in each case. Also, the IC50 against ACK1 was < 100 nM; on GCK it was 1000 to 10000 nM.

Consider `COc1ccccc1-c1cnc(-c2ccc(C)c(N3Cc4cnc(Nc5cnn(C6CCN(C(C)=O)CC6)c5)nc4N(C)C3=O)c2)[nH]1` [Compound No. 7, 7-((1-(1-acetylpiperidin-4-yl)-1H-pyrazol-4-yl)amino)-3-(5-(5-(2-methoxyphenyl)-1H-imidazol-2-yl)-2-methylphenyl)-1-methyl-3,4-dihydropyrimido[4,5-d]pyrimidin-2(1H)-one], for which the GI50 in the test on Ba/F3 (N-Ras G12D) and in the test on OCI-AML3 (N-Ras Q61L) was < 0.5 µM throughout. The IC50 is < 100 nM at ACK1 and 100 to 1000 nM on GCK.

Take `Cc1ccc(Nc2ncc3c(n2)N(C)C(=O)N(c2cc(-c4ncc(-c5ccccc5OC(F)(F)F)[nH]4)ccc2C)C3)c(C)n1` [Compound No. 8, 7-((2,6-dimethylpyridin-3-yl)amino)-1-methyl-3-(2-methyl-5-(5-(2-(trifluoromethoxy)phenyl)-1H-imidazole-2-yl)phenyl)-3,4-dihydropyrimido[4,5-d]pyrimidin-2(1H)-one]: the GI50 in the test on Ba/F3 (N-Ras G12D) was in the range of 0.5 to 3 µM; with OCI-AML3 (N-Ras Q61L), 3 to 5 µM.

For the molecule `Cc1ccc(Nc2ncc3c(n2)N(C)C(=O)N(c2cc(-c4ncc(-c5ccccc5OC(F)(F)F)[nH]4)ccc2C)C3)cn1` [Compound No. 9, 1-methyl-3-(2-methyl-5-(5-(2-(trifluoromethoxy)phenyl)-1H-imidazol-2-yl)phenyl)-7-((6-methylpyridin-3-yl)amino)-3,4-dihydropyrimido[4,5-d]pyrimidin-2(1H)-one], the results for the GI50 in the test with Ba/F3 (N-Ras G12D) and with OCI-AML3 (N-Ras Q61L) were < 0.5 µM and 0.5 to 3 µM, respectively. Further, the IC50 against ACK1 is 100 to 1000 nM; against GCK it was > 10000 nM.

As for `CCN1CCC(n2cc(Nc3ncc4c(n3)N(C)C(=O)N(c3cc(-c5ncc(-c6ccccc6OC(F)(F)F)[nH]5)ccc3C)C4)cn2)CC1` [Compound No. 10, 7-((1-(1-ethylpiperidin-4-yl)-1H-pyrazol-4-yl)amino)-1-methyl-3-(2-methyl-5-(5-(2-(trifluoromethoxy)phenyl)-1H-imidazol-2-yl)phenyl)-3,4-dihydropyrimido[4,5-d]pyrimidin-2(1H)-one], the GI50 in the test with Ba/F3 (N-Ras G12D) and in the test with OCI-AML3 (N-Ras Q61L) was < 0.5 µM throughout. Further, the IC50 on ACK1 was < 100 nM; against GCK it was 100 to 1000 nM.

Take `Cc1ccc(-c2ncc(-c3cccc(F)c3F)[nH]2)cc1N1Cc2cnc(NC3CC3)nc2N(C)C1=O` [Compound No. 11, 7-(cyclopropylamine)-3-(5-(5-(2,3-difluorophenyl)-1H-imidazol-2-yl)-2-methylphenyl)-1-methyl-3,4-dihydropyrimido[4,5-d]pyrimidin-2(1H)-one]: the GI50 in the test with Ba/F3 (N-Ras G12D) and with OCI-AML3 (N-Ras Q61L) was 0.5 to 3 µM throughout. Moreover, the IC50 on ACK1 was 1000 to 10000 nM; against GCK it was > 10000 nM.

Take `Cc1ccc(Nc2ncc3c(n2)N(C)C(=O)N(c2cc(-c4ncc(-c5cccc(F)c5F)[nH]4)ccc2C)C3)cn1` [Compound No. 12]: the results for the GI50 in the test with Ba/F3 (N-Ras G12D) and with OCI-AML3 (N-Ras Q61L) were 0.5 to 3 µM and < 0.5 µM, respectively. The IC50 against ACK1 is 100 to 1000 nM; against GCK, > 10000 nM.

Consider `Cc1ccc(Nc2ncc3c(n2)N(C)C(=O)N(c2cc(-c4ncc(-c5cccc(C(F)(F)F)c5)[nH]4)ccc2C)C3)cn1` [Compound No. 13, 1-methyl-3-(2-methyl-5-(5-(3-(trifluoromethyl)phenyl)-1H-imidazol-2-yl)phenyl)-7-((6-methylpyridin-3-yl)amino)-3,4-dihydropyrimido[4,5-d]pyrimidin-2(1H)-one], for which the GI50 with Ba/F3 (N-Ras G12D) was 3 to 5 µM; in the test with OCI-AML3 (N-Ras Q61L), < 0.5 µM. In addition, the IC50 was 1000 to 10000 nM at ACK1 and > 10000 nM against GCK.

Take `CCN1CCC(c2ccc(Nc3ncc4c(n3)N(C)C(=O)N(c3cc(-c5ncc(-c6ccccc6OC(F)(F)F)[nH]5)ccc3C)C4)cn2)CC1` [Compound No. 15, 7-((6-(1-ethylpiperidin-4-yl)pyridin-3-yl)amino)-1-methyl-3-(2-methyl-5-(5-(2-(trifluoromethoxy)phenyl)-1H-imidazol-2-yl)phenyl)-3,4-dihydropyrimido[4,5-d]pyrimidin-2(1H)-one]: the GI50 with Ba/F3 (N-Ras G12D) was 3 to 5 µM; in the test with OCI-AML3 (N-Ras Q61L), > 5 µM.

For `CCN1CCN(c2ccc(Nc3ncc4c(n3)N(C)C(=O)N(c3cc(-c5ncc(-c6ccccc6OC(F)(F)F)[nH]5)ccc3C)C4)cn2)CC1` [Compound No. 16, 7-((6-(4-ethylpiperazin-1-yl)pyridin-3-yl)amino)-1-methyl-3-(2-methyl-5-(5-(2-(trifluoromethoxy)phenyl)-1H-imidazol-2-yl)phenyl)-3,4-dihydropyrimido[4,5-d]pyrimidin-2(1H)-one], the GI50 in the test with Ba/F3 (N-Ras G12D) and in the test with OCI-AML3 (N-Ras Q61L) was > 5 µM throughout.

As for `CC(=O)N1CCC(n2cc(Nc3ncc4c(n3)N(C)C(=O)N(c3cc(-c5ncc(-c6ccccc6OC(F)(F)F)[nH]5)ccc3C)C4)cn2)CC1` [Compound No. 17, 7-((1-(1-acetylpiperidin-4-yl)-1H-pyrazol-4-yl)amino)-1-methyl-3-(2-methyl-5-(5-(2-(trifluoromethoxy)phenyl)-1H-imidazol-2-yl)phenyl)-3,4-dihydropyrimido[4,5-d]pyrimidin-2(1H)-one], the GI50 with Ba/F3 (N-Ras G12D) and in the test with OCI-AML3 (N-Ras Q61L) was > 5 µM throughout.

By GI50 is commonly meant the concentration at which growth is held to half of that of the control. Higher therefore signals less potent growth inhibition. For orientation: IC50 means the point on the concentration scale where inhibition reaches its midpoint. A higher IC50 goes with weaker potency.

For the origin of these results see patent US20260070913A1, “7-AMINO-3,4-DIHYDROPYRIMIDOPYRIMIDIN-2-ONE DERIVATIVE HAVING INHIBITORY ACTIVITY FOR PROTEIN KINASES AND THERAPEUTIC PHARMACEUTICAL COMPOSITION COMPRISING SAME” (KOREA INSTITUTE OF SCIENCE AND TECHNOLOGY, priority 2020, published 2026).
